The text below walks through data of PubChem BioAssay (NCI).

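Five concentrations, 48 hours, 96-well plates. TGI denotes the concentration required for complete inhibition of growth.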

Test systems include UO-31 renal; NCI-H522 lung; SF-539 CNS; UACC-62 melanoma; SF-268 CNS; CCRF-CEM leukemia; OVCAR-5 ovarian; SNB-19 CNS; NCI-H226 lung; A498 renal; CAKI-1 renal; SF-295 CNS; SK-MEL-28 melanoma; NCI-H460 lung; 786-0 renal; SR leukemia; K-562 leukemia; MCF7 breast; PC-3 prostate.
Holding throughout (assay): DTP human tumour cell line panel, 48 h

Take `O=C1CCC(c2ccccc2)C(O)(C(=O)O)C1` (stereo unspecified): the TGI in the assay with UO-31 renal, in the assay with NCI-H522 lung, with SF-539 CNS, in the assay with UACC-62 melanoma, with SF-268 CNS and in the assay on CCRF-CEM leukemia was over 100 µM in each case. The TGI in the assay with OVCAR-5 ovarian, in the assay with SNB-19 CNS, with NCI-H226 lung, with A498 renal, in the assay with CAKI-1 renal and in the assay with SF-295 CNS was over 100 µM in each case. Further, the TGI in the assay with SK-MEL-28 melanoma, in the assay with NCI-H460 lung, in the assay with 786-0 renal, with SR leukemia and in the assay on K-562 leukemia was over 100 µM each time.
As for `COC(=O)CCC(=O)NC1c2cccc3cccc(c23)Cn2c(=O)n(C)c(=O)n21` (stereo unspecified), the TGI in the assay with UO-31 renal, in the assay with NCI-H522 lung, in the assay with SF-539 CNS, in the assay with UACC-62 melanoma, in the assay on SF-268 CNS and with CCRF-CEM leukemia was over 100 µM each time. The TGI in the assay with MCF7 breast, in the assay with OVCAR-5 ovarian, in the assay with SNB-19 CNS, with CAKI-1 renal, with SF-295 CNS and in the assay on SK-MEL-28 melanoma was over 100 µM in each case. Moreover, the TGI in the assay on NCI-H460 lung, with PC-3 prostate, in the assay on 786-0 renal, in the assay with SR leukemia and in the assay on K-562 leukemia was over 100 µM throughout.
Consider `Cc1cc(=O)[nH]c(NNC(C#N)c2ccc(O)cc2)n1` (stereo unspecified), for which the TGI in the assay with UO-31 renal, in the assay with NCI-H522 lung, in the assay on SF-539 CNS, in the assay with UACC-62 melanoma, with SF-268 CNS and in the assay on CCRF-CEM leukemia was over 100 µM in each case. Besides, the TGI in the assay with OVCAR-5 ovarian, in the assay with NCI-H226 lung, with CAKI-1 renal, with SF-295 CNS, with SK-MEL-28 melanoma and in the assay on NCI-H460 lung was over 100 µM throughout. Moreover, the TGI in the assay with 786-0 renal, in the assay on SR leukemia and in the assay with K-562 leukemia was over 100 µM throughout.
Consider `COc1ccc2c(c1)OCc1c-2oc2ccccc2c1=O`, for which the TGI with UO-31 renal, with NCI-H522 lung, in the assay on SF-539 CNS, with UACC-62 melanoma, in the assay on SF-268 CNS and in the assay on CCRF-CEM leukemia was over 100 µM each time. The TGI in the assay on MCF7 breast, with OVCAR-5 ovarian, with NCI-H226 lung, with A498 renal, with CAKI-1 renal and in the assay with SF-295 CNS was over 100 µM throughout. The TGI in the assay with PC-3 prostate, with 786-0 renal, in the assay on SR leukemia and in the assay with K-562 leukemia was over 100 µM throughout.
`CC1=CC(=O)NCCN1C`: the TGI in the assay with UO-31 renal, with NCI-H522 lung, with SF-539 CNS, with UACC-62 melanoma, with SF-268 CNS and in the assay with CCRF-CEM leukemia was over 100 µM throughout. Besides, the TGI in the assay on OVCAR-5 ovarian, with SNB-19 CNS, with NCI-H226 lung, with A498 renal, in the assay with CAKI-1 renal and in the assay on SF-295 CNS was over 100 µM each time. Also, the TGI in the assay on SK-MEL-28 melanoma, in the assay with NCI-H460 lung, in the assay with 786-0 renal, in the assay on SR leukemia and in the assay on K-562 leukemia was over 100 µM throughout.
Consider `CCOC(=O)CC(NC(=O)c1nc[nH]c1[N+](=O)[O-])C(=O)OCC` (stereo unspecified), for which the TGI in the assay on UO-31 renal, in the assay with NCI-H522 lung, with SF-539 CNS, with UACC-62 melanoma, in the assay on SF-268 CNS and with CCRF-CEM leukemia was over 100 µM throughout. The TGI (usually the concentration at which net growth stops) in the assay with SNB-19 CNS was over 100 µM; in the assay with NCI-H226 lung, 72.5 µM; in the assay on A498 renal it was over 100 µM; with CAKI-1 renal, over 100 µM; with SF-295 CNS, over 100 µM; with SK-MEL-28 melanoma it was over 100 µM. The TGI in the assay with NCI-H460 lung, in the assay with 786-0 renal, in the assay on SR leukemia and in the assay on K-562 leukemia was over 100 µM in each case.
For the molecule `O=C(CSc1nnc(Cc2ccccc2)o1)Nc1cccc([N+](=O)[O-])c1`, the TGI in the assay with UO-31 renal, with NCI-H522 lung, in the assay with SF-539 CNS, in the assay with UACC-62 melanoma, in the assay with SF-268 CNS and in the assay with CCRF-CEM leukemia was over 100 µM in each case. Moreover, the TGI in the assay on OVCAR-5 ovarian, with NCI-H226 lung, in the assay with SF-295 CNS, in the assay with SK-MEL-28 melanoma, in the assay with NCI-H460 lung and in the assay on 786-0 renal was over 100 µM throughout. In addition, the TGI in the assay on K-562 leukemia is over 100 µM.
`O=C(c1ccc(Cl)cc1Cl)N(C(=O)N1CCCCC1)c1ccccc1`: the TGI in the assay with UO-31 renal, in the assay with SF-539 CNS, in the assay on UACC-62 melanoma, with SF-268 CNS, in the assay with CCRF-CEM leukemia and with MCF7 breast was over 100 µM throughout. For the same molecule, the TGI in the assay on OVCAR-5 ovarian, in the assay on SNB-19 CNS, in the assay on NCI-H226 lung, in the assay with A498 renal, in the assay with CAKI-1 renal and with SF-295 CNS was over 100 µM in each case. Moreover, the TGI in the assay with SK-MEL-28 melanoma, with PC-3 prostate, in the assay on 786-0 renal and in the assay on K-562 leukemia was over 100 µM each time.
Turning to `Cc1ccccc1Nc1cn(COCc2ccccc2)c(=O)[nH]c1=O`, the TGI in the assay with UO-31 renal, in the assay on NCI-H522 lung, in the assay with UACC-62 melanoma, in the assay with SF-268 CNS, in the assay on CCRF-CEM leukemia and with MCF7 breast was over 100 µM each time. In addition, the TGI in the assay with OVCAR-5 ovarian, with SNB-19 CNS, with A498 renal, with CAKI-1 renal, with SF-295 CNS and in the assay with SK-MEL-28 melanoma was over 100 µM throughout. Also, the TGI in the assay with NCI-H460 lung, in the assay with PC-3 prostate, with 786-0 renal and in the assay on K-562 leukemia was over 100 µM in each case.
Consider `N#[O+].O=S(=O)([O-])[O-].[NH2-].[NH2-].[NH2-].[NH2-].[NH2-].[Ru+5]`, for which the TGI in the assay on NCI-H522 lung, in the assay on SF-539 CNS, in the assay on UACC-62 melanoma, in the assay with SF-268 CNS, in the assay with CCRF-CEM leukemia and with OVCAR-5 ovarian was over 100 µM each time. In addition, the TGI with NCI-H226 lung, in the assay with A498 renal, in the assay with CAKI-1 renal, in the assay on SF-295 CNS, with SK-MEL-28 melanoma and in the assay on NCI-H460 lung was over 100 µM throughout. In addition, the TGI in the assay on 786-0 renal and in the assay with SR leukemia was over 100 µM throughout.
As to `CC1=CC(=O)NP(=O)(Oc2ccc(C)cc2)N1` (stereo unspecified), the TGI with UO-31 renal, in the assay on NCI-H522 lung, in the assay on SF-539 CNS, in the assay with UACC-62 melanoma, in the assay on SF-268 CNS and in the assay on CCRF-CEM leukemia was over 100 µM throughout. The TGI with OVCAR-5 ovarian, in the assay on SNB-19 CNS, in the assay on NCI-H226 lung, with A498 renal, in the assay with CAKI-1 renal and in the assay on SF-295 CNS was over 100 µM in each case. The TGI in the assay on SK-MEL-28 melanoma, in the assay with NCI-H460 lung, in the assay with 786-0 renal, in the assay on SR leukemia and in the assay with K-562 leukemia was over 100 µM in each case.
Take `COc1cc2c(c(OC)c1OC)-c1ccc(SC)c(=O)cc1C(CC(=O)Oc1ccc([N+](=O)[O-])cc1)C2` (stereo unspecified): the TGI was over 100 µM in the assay on UO-31 renal; 0.636 µM in the assay on SF-539 CNS; 11.4 µM in the assay with UACC-62 melanoma; 31.4 µM in the assay with SF-268 CNS; over 100 µM in the assay with CCRF-CEM leukemia; over 100 µM in the assay with OVCAR-5 ovarian. In addition, the TGI in the assay with SNB-19 CNS was over 31.8 µM; with NCI-H226 lung it was 0.865 µM; in the assay with A498 renal it was 0.571 µM; in the assay with CAKI-1 renal, over 62.8 µM; in the assay with SF-295 CNS it was over 45.6 µM; in the assay with SK-MEL-28 melanoma it was over 56.6 µM. Moreover, the TGI was 5.78 µM with NCI-H460 lung, over 37.2 µM with 786-0 renal and over 38 µM in the assay on SR leukemia.
Consider `CC(=O)OC1CC2OC(Cc3ccccc32)O1` (stereo unspecified), for which the TGI in the assay on UO-31 renal was over 100 µM; in the assay with NCI-H522 lung it was over 100 µM; with SF-539 CNS, 81.6 µM; in the assay on UACC-62 melanoma, over 100 µM; with SF-268 CNS it was over 100 µM; in the assay on CCRF-CEM leukemia it was over 100 µM. Also, the TGI in the assay on SNB-19 CNS, in the assay with NCI-H226 lung, in the assay on SF-295 CNS, in the assay with SK-MEL-28 melanoma, in the assay with NCI-H460 lung and with 786-0 renal was over 100 µM each time. Moreover, the TGI in the assay on SR leukemia and in the assay on K-562 leukemia was over 100 µM each time.
As for `CN(C)/N=C(\CCN1CCCC1)CC(c1ccccc1)c1c(O)c2ccccc2oc1=O` (stereo unspecified), the TGI with NCI-H522 lung, in the assay on SF-539 CNS, with UACC-62 melanoma, in the assay on SF-268 CNS, with CCRF-CEM leukemia and with OVCAR-5 ovarian was over 100 µM in each case. The TGI with SNB-19 CNS, in the assay on NCI-H226 lung, in the assay with CAKI-1 renal, in the assay on SF-295 CNS, with SK-MEL-28 melanoma and in the assay on 786-0 renal was over 100 µM throughout. This molecule also gave a TGI in the assay on K-562 leukemia of over 100 µM.
